Assays:
Experiment in all cases: area under growth-rate inhibition curve (AUC GRI) (dimensionless (GR-based AUC)); higher = less growth inhibition
Conditions in all cases: exposure time: 72 h; concentrations: 0.1, 1, 10 uM
SKBR3-P = tested on: SKBR3-P
Procedure, shortened: (§1)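 The area under the growth-rate inhibition curve was measured in six breast cancer cell line models, covering triple-negative lines and HER2+ lines, both parental and resistant to a two-drug combination. Cells were exposed to compound at 0.1, 1 or 10 µM for 72 h, fixed in 4% paraformaldehyde, and nuclei were stained with Hoechst 33342 or DAPI for imaging and counting. Day 0 plates, untreated Day 3 plates and DMSO controls served to correct growth across 2 biological replicates.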

BT474-LTR = tested on: BT474-LTR
Procedure, shortened: as §1

SKBR3-LTR = tested on: SKBR3-LTR
Procedure, shortened: as §1

MDA-MB-231 = tested on: MDA-MB-231
Procedure, shortened: as §1

BT474-P = tested on: BT474-P
Procedure, shortened: as §1

MDA-MB-468 = tested on: MDA-MB-468
Procedure, shortened: as §1

| Compound | area under growth-rate inhibition curve (SKBR3-P) | area under growth-rate inhibition curve (BT474-LTR) | area under growth-rate inhibition curve (SKBR3-LTR) | area under growth-rate inhibition curve (MDA-MB-231) | area under growth-rate inhibition curve (BT474-P) | area under growth-rate inhibition curve (MDA-MB-468) |
| --- | --- | --- | --- | --- | --- | --- |
| C[C@]12CCC(=O)C=C1CC[C@H]1[C@@H]3CC[C@@](C)(O)[C@@]3(C)C[C@H](O)[C@@]12F [Fluoxymesterone] | 1.01 | 0.955 | 1.03 | 0.995 | 0.937 | 1.04 |
| OCCN1CCN(CCCN2c3ccccc3Sc3ccc(C(F)(F)F)cc32)CC1.[Cl-].[Cl-].[H+].[H+] [Fluphenazine (dihydrochloride)] | 0.975 | 1.06 | 1.05 | 0.991 | 0.966 | 0.953 |
| Cl.Cl.OCCN1CCN(CCCN2c3ccccc3Sc3ccc(C(F)(F)F)cc32)CC1 [Fluphenazine dihydrochloride?] | 1.02 | 1.02 | 1.05 | 1.03 | 1.01 | 1.03 |
| CCC(=O)O[C@@]1(C(=O)SCF)[C@H](C)CC2C3CC(F)C4=CC(=O)C=C[C@]4(C)[C@]3(F)C(O)C[C@@]21C (some centres undefined) [Fluticasone propionate] | 0.915 | 1.04 | 1.05 | 0.973 | 0.985 | 1.04 |
| COCCCC/C(=N\OCCN)c1ccc(C(F)(F)F)cc1.O=C(O)/C=C\C(=O)O [Fluvoxamine maleate] | 1.02 | 1.1 | 1.05 | 1.01 | 1.04 | 1.03 |
| COc1ccc(C[C@H](C)NC[C@@H](O)c2ccc(O)c(NC=O)c2)cc1.COc1ccc(C[C@H](C)NC[C@@H](O)c2ccc(O)c(NC=O)c2)cc1.O=C(O)/C=C/C(=O)O [Formoterol Hemifumarate] | 1.03 | 1.05 | 1.09 | 0.93 | 1.01 | 1.01 |
| C=C[C@@]1(C)CC(=O)[C@]2(O)[C@@]3(C)[C@@H](O)CCC(C)(C)[C@@H]3[C@H](O)[C@H](OC(C)=O)[C@@]2(C)O1 [Forskolin] | 1.03 | 1.02 | 1.04 | 0.924 | 0.984 | 1.01 |
| CCC(=O)O[C@@H](OP(=O)(CCCCc1ccccc1)CC(=O)N1C[C@H](C2CCCCC2)C[C@H]1C(=O)[O-])C(C)C.[Na+] (some centres undefined) [Fosinopril Sodium] | 1.01 | 1.13 | 1.04 | 1.03 | 1.06 | 1.02 |
| C[C@]12CC[C@@H]3c4ccc(O)cc4C[C@@H](CCCCCCCCCS(=O)CCCC(F)(F)C(F)(F)F)[C@H]3[C@@H]1CC[C@@H]2O (some centres undefined) [Fulvestrant] | 0.952 | 0.986 | 1.01 | 1.02 | 0.778 | 0.96 |
| NCC1(CC(=O)O)CCCCC1 [Gabapentin] | 1.03 | 1.04 | 1.08 | 1.04 | 1 | 1.04 |
| CC[N+](CC)(CC)CCOc1cccc(OCC[N+](CC)(CC)CC)c1OCC[N+](CC)(CC)CC.[I-].[I-].[I-] [Gallamine Triethiodide] | 1 | 1.08 | 1.03 | 1.03 | 1.02 | 1.01 |
| C#C[C@]1(O)C=C[C@H]2[C@@H]3CCC4=CC(=O)CC[C@@H]4[C@H]3CC[C@@]21CC [Gestodene] | 1.01 | 1.04 | 1.12 | 1.03 | 0.981 | 1.03 |
| NCC(=O)O [Glycine] | 1.03 | 1.05 | 1.06 | 1.04 | 1.03 | 1.03 |
| N=C(N)N/N=C/c1c(Cl)cccc1Cl [Guanabenz Acetate] | 1.01 | 1.1 | 1.08 | 1.03 | 1.03 | 1 |
| NC(N)=NCCCC(N)C(=O)NC(CCCN=C(N)N)C(=O)N1CCCC1C(=O)N1CC(O)CC1C(=O)NCC(=O)NC(Cc1cccs1)C(=O)NC(CO)C(=O)N1Cc2ccccc2CC1C(=O)N1C(C(=O)NC(CCCN=C(N)N)C(=O)O)CC2CCCCC21 (centres undefined) [HOE 140] | 1.04 | 1.06 | 1.04 | 1.01 | 1.03 | 1.02 |
| O=C(CCCN1CCC(O)(c2ccc(Cl)cc2)CC1)c1ccc(F)cc1.[Cl-].[H+] [Haloperidol hydrochloride] | 1.01 | 1.07 | 1.05 | 1.04 | 1.03 | 1.04 |
| COc1ccc([C@@H]2CC(=O)c3c(O)cc(O)cc3O2)cc1O [Hesperetin] | 1.03 | 1.02 | 1.02 | 1 | 1.01 | 0.996 |
| CC[C@H](c1ccc(O)cc1)[C@@H](CC)c1ccc(O)cc1 [Hexestrol] | 0.989 | 1.06 | 0.993 | 1.02 | 1.05 | 0.973 |
| Cl.Cl.NCCc1cnc[nH]1 [Histamine 2HCl] | 1.01 | 1.11 | 1.05 | 1.02 | 1.05 | 1.02 |
| OCCOCCN1CCN(C(c2ccccc2)c2ccc(Cl)cc2)CC1.[Cl-].[Cl-].[H+].[H+] (centres undefined) [Hydroxyzine 2HCl] | 0.995 | 1.1 | 1.05 | 1.01 | 1.08 | 1.04 |
| CN1C2CCC1CC(OC(=O)C(CO)c1ccccc1)C2 (centres undefined) [Hyoscyamine] | 1.04 | 1.13 | 1.04 | 1.03 | 1.06 | 1.04 |
| NCCCCCNCC12CC3CC(CC(C3)C1)C2.[Br-].[Br-].[H+].[H+] [IEM 1754 dihydrobroMide] | 1.03 | 1.07 | 1.04 | 1.04 | 1.01 | 1.03 |
| CC(C(O)c1ccc(O)cc1)N1CCC(Cc2ccccc2)CC1.CC(C(O)c1ccc(O)cc1)N1CCC(Cc2ccccc2)CC1.O=C(O)C(O)C(O)C(=O)O (centres undefined) [Ifenprodil Tartrate] | 0.985 | 1.01 | 0.997 | 1.04 | 1.02 | 0.985 |
| COc1cc(C(C)=O)ccc1OCCCN1CCC(c2noc3cc(F)ccc23)CC1 [Iloperidone] | 0.991 | 1.02 | 1.07 | 1.04 | 0.979 | 1.03 |

From the supplement of paper PMC9763283
